# Test results as given in patent publication US20070219220A1, “Pyrazolopyrimidinethione Derivatives, Salts and Solvates Thereof, Preparation Methods and Use Thereof” (priority 2003, published 2007).
# Like-named read-outs stand apart in the source and are kept apart here. Marks after values point to notes of the source that are not given here.
# Experiments:
# [1] = system: rats with testis removed; experiment: Penile erection caused by stimulating electric current in rats with testes removed (Example 7); assay type: in vivo, wistar rats; details: for penile swelling time (in words) / latent period of the penile erection (in words): compared with control; for latent period of the penile erection (in words): P<0.001; for Latent period / Swelling time: stimulation 35 min after administration
# Excerpt: Methods: Forty healthy adult male wistar rats were used in the study, with the body weight ranging from 230 g to 250 g. The rats were anesthetized with sodium pentobarbital, and their testes were squeezed into the scrotum. After sterilization, the scrotum was dissected with an operation knife. The testes and epididymis were taken out respectively and then ligated. The wound were sutured and 100,000 unit of penicillin was administrated to each rat for three consecutive days. After breeding for one week, the rats were used for the tests. The animals may be used repeatedly and the interval between any two of the tests was one week. […] Sildenafil at the dose of 50 mg/kg was used as the positive control. The control group is (1% sodium carboxymethyl cellulose). In 35 min after the administration, the penis of the rats was stimulated with SEN-3201 stimulator (NIHON KOHDEN, Japan), with the following parameters: the stimulating voltage of 10V, the time interval (T1) of 250 msec, the deferment time (T2) of 10 msec, the duration (T3) of 500 μsec, and the stimulation rank (n) of 25. At the same time, the latent period (sec) of the penile erection and the penile swelling time (min) were recorded with a three-channel stop-watch.
# [2] = system: mice with testis removed; experiment: Sexual function (back climbing) of testis-removed mice (Example 10); assay type: in vivo, KM mice; details: for Incidence: back climbing within 2 hours after administration; for Times of back climbing / Number of the animals who performed back climbing: within 2 hours after administration; for Number of the animals who performed back climbing: 10 male mice
# Excerpt: Methods: Forty healthy KM male mice with the body weight ranging from 28-32 g and forty healthy KM female mice with body weight ranging from 24-28 g were used. Each male mouse was anesthetized with sodium pentobarbital, and the testes were squeezed into the scrotum. After sterilization, the scrotum was dissected with an operating knife. The testes and epididymis were respectively taken out, and then ligated. The wound were sutured and each of the mice was administrated with 100,000 units of penicillin for three consecutive days. After being bred for one week, the mice were used for the tests. The animals may be employed repeatedly and the interval between any two tests was 72 hours. To the mice, the following compounds were orally administered: compound (1), compound (2), compound (3), and compound (4), each at the dose of 80 mg/kg and 40 mg/kg, respectively. The positive control agent was Sildenafil, at the dose of 80 mg/kg. The control group was given with 1% of sodium carboxymethyl cellulose. At 30 min after the administration, the male mice who had taken the above agents were put into the cages of female mice, with the male-to-female rate of 1:1. There were three males and three females in each cage. The times of back climbing on the female mice performed by the male mice, and the percentage of occurrence were observed within 2 hours after the administration.
# [3] = Preliminary acute toxicity, Bliss method (Example 13); details: rat, in vivo, oral and intragastric administration, rats
# Protocol: Experimental methods: the toxicity test was conducted by oral and intragastric administration of the pyrazolopyrimidinethione derivatives of the invention using the Bliss method.
# [4] = system: anesthetized dogs; experiment: Blood pressure, heart rate and respiration of anesthetized dogs (Example 11); assay type: in vivo; details: for arterial blood pressure (systolic and diastolic), heart rate and respiration (frequency and depth), in words: oral 40 mg/kg, in 3 hours after administration
# Protocol: Methods: eight healthy male dogs with the body weight ranging from 12-15 kg were used. The dogs were anesthetized with 30 mg/kg of sodium pentobarbital. The femoral artery was dissected and inserted with a blood pressure transducer to record the blood pressure. The limbs were pierced with electrodes for recording the electrocardiogram. The respiration belt was wrapped around their chest and the respiration rate was recorded. The apparatus used was RM-6000 Polygraph system (NIHON KOHDEN, Japan). The changes in the arterial blood pressure, the heart rate, and the respiration were observed after the test compound was introduced into the stomach of the anesthetized dogs via 14# catheter.
# [5] = cited from earlier work
# [6] = system: healthy mice; details: within two hours, cited from earlier work
# [7] = system: dog; details: cited from earlier work
# [8] = system: anesthetized rats; experiment: Blood pressure and heart rate of anesthetized rats (Example 12); assay type: in vivo, wistar rats
# Protocol: Forty male wistar rats with the body weight ranging from 220-240 g were used in the study. Pharmaceuticals: compound (2) and Sildenafil, which were ground and then suspended with 1% of sodium carboxymethyl cellulose. Apparatus: RM-6000 eight-graph system (NIHON KOHDEN, Japan). The doses for administration and the division of the groups: solvent control group (abbreviated as the control group), 20 mg/kg of compound (2), 40 mg/kg of compound (2), 80 mg/kg of compound (2), and 50 mg/kg of Sildenafil. The administration route is through dodecadactylon. Methods: the male wistar rats were taken out and anesthetized with 35 mg/kg of sodium pentobarbital by injecting into the abdominal cavity, on the basis of their body weight. The rats were fixed on the operation table and were performed with the dissection operation of right carotid artery. The catheter with an external diameter of 1 mm was inserted into the right carotid artery. The blood pressure was measured and the electrodes positioned on the skin of the four limbs were used to record the electrocardiogram limb lead II. The catheter with an external diameter of 2 mm was inserted into the dodecadactylon via incision of the epigastric region, for the administration of the pharmaceuticals. RM-6000 eight-graph system (NIHON KOHDEN, Japan) was employed to record. Observation time: the value before administration, the values at 15, 30, 60, 120 and 180 min after the administration.
# [9] = system: rats with testis removed; experiment: Duration of penile erection in rats with testis removed (Example 8); assay type: in vivo, wistar rats; details: oral 50 mg/kg
# [10] = prior-art filings, background section
# [11] = 50 mg/kg through dodecadactylon, at 15 min after administration
# [12] = 50 mg/kg through dodecadactylon, at 30 min after administration
# [13] = 50 mg/kg through dodecadactylon, at 60 min after administration
# [14] = 50 mg/kg through dodecadactylon, at 120 min after administration
# [15] = 50 mg/kg through dodecadactylon, value before administration
smiles,measurement,setting,value
"CCCc1nn(C)c2c(=S)[nH]c(-c3cc(S(=O)(=O)N4C[C@@H](C)N[C@@H](C)C4)ccc3OC)nc12 [Compound (3), 5-[2-methoxy-5-(cis-3,5-dimethylpiperazin-1-sulfonyl)phenyl]-1-methyl-3-n-propyl-1,6-dihydro-7H-pyrazolo[4,3-d]pyrimidin-7-thione]",penile swelling time (in words),[1],lengthened
same,latent period of the penile erection (in words),[1],evidently shortened
same,Latent period,[1]; oral 20 mg/kg,32.8 ± 4.4 s
same,Swelling time,[1]; oral 20 mg/kg,551.8 ± 350.8 s
same,Latent period,[1]; oral 40 mg/kg,30.4 ± 2.6 s
same,Swelling time,[1]; oral 40 mg/kg,809.6 ± 247.5 s
same,Incidence,[2]; oral 40 mg/kg,20%
same,Times of back climbing,[2]; oral 40 mg/kg,2
same,Number of the animals who performed back climbing,[2]; oral 40 mg/kg,2
same,Incidence,[2]; oral 80 mg/kg,30%
same,Times of back climbing,[2]; oral 80 mg/kg,4
same,Number of the animals who performed back climbing,[2]; oral 80 mg/kg,3
same,LD50,[3],2500 mg/kg
same,"arterial blood pressure (systolic and diastolic), heart rate and respiration (frequency and depth), in words",[4],did not experience an evident change
"CCCOc1ccc(S(=O)(=O)N2C[C@@H](C)N[C@@H](C)C2)cc1-c1nc2c(CCC)nn(C)c2c(=S)[nH]1 [Compound (4), 5-[2-propoxy-5-(cis-3,5-dimethylpiperazin-1-sulfonyl)phenyl]-1-methyl-3-n-propyl-1,6-dihydro-7H-pyrazolo[4,3-d]pyrimidin-7-thione]",penile swelling time (in words),[1],lengthened
same,latent period of the penile erection (in words),[1],evidently shortened
same,Incidence,[2]; oral 40 mg/kg,20%
same,Times of back climbing,[2]; oral 40 mg/kg,3
same,Number of the animals who performed back climbing,[2]; oral 40 mg/kg,2
same,Incidence,[2]; oral 80 mg/kg,30%
same,Times of back climbing,[2]; oral 80 mg/kg,5
same,Number of the animals who performed back climbing,[2]; oral 80 mg/kg,3
same,LD50,[3],> 3000 mg/kg
same,"arterial blood pressure (systolic and diastolic), heart rate and respiration (frequency and depth), in words",[4],did not experience an evident change
"CCCc1nn(C)c2c(=O)[nH]c(-c3cc(S(=O)(=O)N4C[C@@H](C)N[C@@H](C)C4)ccc3OCC)nc12 [5-[2-ethoxy-5-(cis-3,5-dimethylpiperazin-1-sulfonyl)phenyl]-1-methyl-3-n-propyl-1,6-dihydro-7H-pyrazolo[4,3d]pyrimidin-7-one]",LD50,[5]; [10],772.5 to 1052.1 mg/kg
"CCCc1nn(CC)c2c(=S)[nH]c(-c3cc(S(=O)(=O)N4C[C@@H](C)N[C@@H](C)C4)ccc3OCC)nc12 [Compound (1), 5-[2-ethoxy-5-(cis-3,5-dimethylpiperazin-1-sulfonyl)phenyl]-1-ethyl-3-n-propyl-1,6-dihydro-7H-pyrazolo[4,3-d]pyrimidin-7-thione]",penile swelling time (in words),[1],lengthened
same,latent period of the penile erection (in words),[1],evidently shortened
same,penile swelling time compared with positive control sildenafil (in words),[1]; compared with sildenafil 50 mg/kg,more evident
same,Latent period,[1]; oral 20 mg/kg,28.8 ± 1.7 s
same,Swelling time,[1]; oral 20 mg/kg,1305.1 ± 588.8 s
same,Latent period,[1]; oral 40 mg/kg,29.5 ± 4.2 s
same,Swelling time,[1]; oral 40 mg/kg,2943.1 ± 552.9 s
same,Incidence,[2]; oral 40 mg/kg,30%
same,Times of back climbing,[2]; oral 40 mg/kg,4
same,Number of the animals who performed back climbing,[2]; oral 40 mg/kg,3
same,Incidence,[2]; oral 80 mg/kg,40%
same,Times of back climbing,[2]; oral 80 mg/kg,7*
same,Number of the animals who performed back climbing,[2]; oral 80 mg/kg,4
same,LD50,[3],> 3000 mg/kg
same,"arterial blood pressure (systolic and diastolic), heart rate and respiration (frequency and depth), in words",[4],did not experience an evident change
"CCCc1nn(CC)c2c(=O)[nH]c(-c3cc(S(=O)(=O)N4C[C@@H](C)N[C@@H](C)C4)ccc3OCC)nc12 [5-[2-ethoxy-5-(cis-3,5-dimethylpiperazine-1-sulfonyl)phenyl]-1-ethyl-3-n-propyl-1,6-dihydro-7H-pyrazolopyrimidin-7-one]",occurrences of back climbing,[6]; oral 15 mg/kg,56.6%
same,times of back climbing on the female mice performed by the male mice,[6]; oral 15 mg/kg,43
same,occurrences of back climbing,[6]; oral 30 mg/kg,62.5%
same,times of back climbing on the female mice performed by the male mice,[6]; oral 30 mg/kg,53
same,diastolic pressure and heart rate (in words),[7],dramatically decrease diastolic pressure and increase heart rate
same,LD50,[5]; [10],greater than 2000 mg/kg
"CCCc1nn(C)c2c(=O)[nH]c(-c3cc(S(=O)(=O)N4CCN(C)CC4)ccc3OCC)nc12 [Sildenafil, reference compound]",blood pressure (in words),[8]; 50 mg/kg through dodecadactylon,began to decrease at 15 min after the administration
same,Heart rate,[8]; [11],445 ± 29.7 times/min
same,Systolic pressure,[8]; [11],90 ± 29.7 mmHg
same,diastolic pressure,[8]; [11],68 ± 29.7 mmHg
same,Heart rate,[8]; [12],444 ± 29.6 times/min
same,Systolic pressure,[8]; [12],90 ± 29.6 mmHg
same,diastolic pressure,[8]; [12],70 ± 29.6 mmHg
same,Heart rate,[8]; [13],437 ± 22.8 times/min
same,Systolic pressure,[8]; [13],88 ± 22.9 mmHg
same,diastolic pressure,[8]; [13],68 ± 22.9 mmHg
same,Heart rate,[8]; [14],439 ± 22.6 times/min
same,Systolic pressure,[8]; [14],93 ± 22.6 mmHg
same,diastolic pressure,[8]; [14],71 ± 22.6 mmHg
same,Heart rate,"[8]; 50 mg/kg through dodecadactylon, before administration",429 ± 26.1 times/min
same,Systolic pressure,[8]; [15],120 ± 10.6 mmHg
same,diastolic pressure,[8]; [15],98 ± 16.0 mmHg
same,effect on the heart rate (in words),"[8]; 50 mg/kg, at 15 and 30 minutes after administration",increasing the heart rate
same,how long the penile swelling effect lasts after administration,[9],about 1 hour
same,Penile swelling time,[9]; at 1 h after administration,1067.0 ± 204.5 s
same,Penile swelling time,[9]; at 3 h after administration,44.0 ± 11.3 s
same,penile swelling time compared with control group (in words),[9]; at 3 hr after the administration,shorter than that of the control group
same,Penile swelling time,[9]; at 6 h after administration,38.8 ± 5.6 s
same,Penile swelling time,[9]; at 24 h after administration,61.0 ± 8.7 s
same,Penile swelling time,[9]; value before administration,62.8 ± 7.7 s
same,Latent period,[1]; oral 50 mg/kg,28.9 ± 1.7 s
same,Swelling time,[1]; oral 50 mg/kg,2272.5 ± 326.2 s
same,occurrences of back climbing,[6]; oral 50 mg/kg,50%
same,times of back climbing on the female mice performed by the male mice,[6]; oral 50 mg/kg,19
same,Incidence,[2]; oral 80 mg/kg,70%
same,Number of the animals who performed back climbing,[2]; oral 80 mg/kg,6*
same,LD50,"[5]; as reported in Chinese Journal of Clinical Pharmacology and Therapeutics (1999, 4(3): 237-240)",635 mg/kg
same,LD50,[5]; [10],635 mg/kg
same,blood pressure (in words),"[4]; Sildenafil 40 mg/kg, mainly diastolic pressure",apparent effect of decreasing the blood pressure
